Laboratory results published in ChEMBL document CHEMBL4251632, “Synthesis and antidepressant-like activity of novel aralkyl piperazine derivatives targeting SSRI/5-HT1A/5-HT7” (Eur J Med Chem, 2018).
pIC50, pKi: −log10 of the molar value.

Tests used:
[1] = molecular target: Sodium-dependent serotonin transporter (Rattus norvegicus, UniProt P31652); experiment: Inhibition of [3H]serotonin reuptake in rat brain synaptosomes SERT after 15 mins by TopCount scintillation counting method; assay type: subcellular
Chain of Sodium-dependent serotonin transporter (P31652 whole entry): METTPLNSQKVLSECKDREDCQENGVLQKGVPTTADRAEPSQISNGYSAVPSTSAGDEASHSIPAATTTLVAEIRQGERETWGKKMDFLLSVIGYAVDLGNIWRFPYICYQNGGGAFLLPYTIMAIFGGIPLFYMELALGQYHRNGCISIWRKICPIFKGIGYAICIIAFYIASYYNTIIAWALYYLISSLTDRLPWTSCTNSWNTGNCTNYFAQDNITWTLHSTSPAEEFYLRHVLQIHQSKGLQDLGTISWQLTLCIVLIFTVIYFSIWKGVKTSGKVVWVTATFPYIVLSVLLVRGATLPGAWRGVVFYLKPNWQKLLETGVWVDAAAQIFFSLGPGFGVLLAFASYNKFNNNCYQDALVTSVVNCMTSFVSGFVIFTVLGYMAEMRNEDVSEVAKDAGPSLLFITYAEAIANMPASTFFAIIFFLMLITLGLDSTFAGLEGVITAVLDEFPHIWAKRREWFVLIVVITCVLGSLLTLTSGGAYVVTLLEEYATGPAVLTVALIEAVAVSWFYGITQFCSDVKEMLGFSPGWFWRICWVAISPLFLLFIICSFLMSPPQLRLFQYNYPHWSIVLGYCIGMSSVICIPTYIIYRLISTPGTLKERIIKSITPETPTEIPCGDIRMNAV

[2] = molecular target: T1, 5-hydroxytryptamine receptor 1A (Homo sapiens) (UniProt P08908); experiment: Displacement of [3H]8-OH-DPAT from recombinant human 5-HT1A receptor expressed in HEK293 cell membranes at 10 uM after 60 mins by TopCount scintillation counting method relative to control
T1 sequence (whole entry): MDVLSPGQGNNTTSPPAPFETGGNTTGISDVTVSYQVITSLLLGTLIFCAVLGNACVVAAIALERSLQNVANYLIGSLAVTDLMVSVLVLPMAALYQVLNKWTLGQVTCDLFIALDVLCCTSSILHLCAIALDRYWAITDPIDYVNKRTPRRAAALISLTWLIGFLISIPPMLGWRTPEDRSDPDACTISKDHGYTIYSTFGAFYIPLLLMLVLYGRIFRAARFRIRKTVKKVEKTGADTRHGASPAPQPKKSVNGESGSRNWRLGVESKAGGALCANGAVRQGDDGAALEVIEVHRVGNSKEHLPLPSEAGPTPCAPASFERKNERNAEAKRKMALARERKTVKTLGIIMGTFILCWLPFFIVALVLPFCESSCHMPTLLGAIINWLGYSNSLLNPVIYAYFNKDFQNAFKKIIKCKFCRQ

[3] = molecular target: 5-hydroxytryptamine receptor 7 (Homo sapiens, UniProt P34969); experiment: Displacement of [3H]LSD from recombinant human 5-HT7 receptor expressed in CHO cell membranes after 120 mins by TopCount scintillation counting method
Chain of 5-hydroxytryptamine receptor 7 (P34969 whole entry): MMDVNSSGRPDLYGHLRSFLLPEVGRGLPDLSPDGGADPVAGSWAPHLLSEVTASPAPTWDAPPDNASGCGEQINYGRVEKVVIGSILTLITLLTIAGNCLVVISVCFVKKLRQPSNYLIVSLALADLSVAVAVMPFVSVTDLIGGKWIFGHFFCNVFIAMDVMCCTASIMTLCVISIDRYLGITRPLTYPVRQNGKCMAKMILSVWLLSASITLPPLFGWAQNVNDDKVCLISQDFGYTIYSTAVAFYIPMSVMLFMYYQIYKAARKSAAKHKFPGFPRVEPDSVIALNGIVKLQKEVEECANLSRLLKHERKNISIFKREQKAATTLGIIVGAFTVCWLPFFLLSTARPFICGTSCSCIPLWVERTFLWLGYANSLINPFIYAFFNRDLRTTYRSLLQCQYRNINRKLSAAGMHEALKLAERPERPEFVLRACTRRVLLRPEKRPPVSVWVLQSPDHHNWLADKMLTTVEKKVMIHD

[4] = Clearance in rat liver microsomes at 1 uM in presence of NADPH by LC-MS/MS analysis; assay type: ADME, microsome; details: read-out: CLH
Mus musculus [5] = experiment: Antidepressant-like activity in po dosed mouse assessed as reduction in immobility time administered once daily for 7 days measured for last 4 mins of 6 mins test at 1 hr post last dose by forced swim test; assay type: functional, organism-based
[6] = molecular target: Voltage-gated inwardly rectifying potassium channel KCNH2 (Homo sapiens, UniProt Q12809); experiment: Inhibition of human ERG expressed in CHO-K1 cells assessed as reduction in tail current amplitude at -80 mV holding potential after 2 mins by path clamp assay; assay type: cell-based
Chain of Voltage-gated inwardly rectifying potassium channel KCNH2 (Q12809 whole entry): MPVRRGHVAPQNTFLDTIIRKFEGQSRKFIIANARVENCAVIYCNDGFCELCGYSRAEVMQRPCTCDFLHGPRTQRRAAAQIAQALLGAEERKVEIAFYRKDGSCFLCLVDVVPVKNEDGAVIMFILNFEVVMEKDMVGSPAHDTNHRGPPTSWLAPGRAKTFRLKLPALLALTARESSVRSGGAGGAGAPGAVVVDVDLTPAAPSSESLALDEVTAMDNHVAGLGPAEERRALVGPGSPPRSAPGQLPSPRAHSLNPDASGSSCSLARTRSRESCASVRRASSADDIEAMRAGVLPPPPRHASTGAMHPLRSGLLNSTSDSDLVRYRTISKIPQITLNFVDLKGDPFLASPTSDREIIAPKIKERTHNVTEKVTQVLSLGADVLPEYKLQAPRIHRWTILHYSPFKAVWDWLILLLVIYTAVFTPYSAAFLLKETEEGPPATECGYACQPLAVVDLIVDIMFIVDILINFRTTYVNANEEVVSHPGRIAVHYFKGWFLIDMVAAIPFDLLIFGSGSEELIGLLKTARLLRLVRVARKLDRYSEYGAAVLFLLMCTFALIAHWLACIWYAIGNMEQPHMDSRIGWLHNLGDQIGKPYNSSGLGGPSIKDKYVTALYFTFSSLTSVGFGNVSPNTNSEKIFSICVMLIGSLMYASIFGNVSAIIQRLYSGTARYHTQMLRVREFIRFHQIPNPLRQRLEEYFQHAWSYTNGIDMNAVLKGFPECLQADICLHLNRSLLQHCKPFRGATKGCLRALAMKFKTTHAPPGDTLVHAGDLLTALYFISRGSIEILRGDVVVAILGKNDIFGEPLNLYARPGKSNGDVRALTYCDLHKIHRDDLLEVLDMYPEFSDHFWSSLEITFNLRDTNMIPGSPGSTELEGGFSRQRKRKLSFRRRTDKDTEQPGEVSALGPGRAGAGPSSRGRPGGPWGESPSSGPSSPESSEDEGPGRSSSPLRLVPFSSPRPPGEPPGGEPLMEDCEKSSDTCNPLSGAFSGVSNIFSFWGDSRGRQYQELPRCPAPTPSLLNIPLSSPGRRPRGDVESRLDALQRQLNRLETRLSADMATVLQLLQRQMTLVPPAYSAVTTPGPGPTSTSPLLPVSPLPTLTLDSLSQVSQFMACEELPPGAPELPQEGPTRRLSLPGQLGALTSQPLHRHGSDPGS

Mus musculus [7] = experiment: Antidepressant-like activity in mouse assessed as reduction in immobility time at 40 mg/kg/day, po administered once daily for 7 days measured for 5 mins at 1 hr post last dose by tail suspension test relative to control; assay type: functional; design: scale not given: the % may be the effect or the level left
Mus musculus [8] = experiment: Antidepressant-like activity in mouse assessed as reduction in immobility time at 20 mg/kg/day, po administered once daily for 7 days measured for 5 mins at 1 hr post last dose by tail suspension test relative to control; assay type: functional; design: scale not given: the % may be the effect or the level left
Mus musculus [9] = experiment: Antidepressant-like activity in mouse assessed as reduction in immobility time at 10 mg/kg/day, po administered once daily for 7 days measured for 5 mins at 1 hr post last dose by tail suspension test relative to control; assay type: functional; design: scale not given: the % may be the effect or the level left
[10] = molecular target: T2, Alpha-1A adrenergic receptor (Homo sapiens, UniProt P35348); experiment: Displacement of [3H]prazosin from alpha1-adrenoceptor (unknown origin) in cerebral cortex membranes after 60 mins by TopCount scintillation counting method; assay type: cell membranes, Membrane
T2 sequence (P35348 whole entry): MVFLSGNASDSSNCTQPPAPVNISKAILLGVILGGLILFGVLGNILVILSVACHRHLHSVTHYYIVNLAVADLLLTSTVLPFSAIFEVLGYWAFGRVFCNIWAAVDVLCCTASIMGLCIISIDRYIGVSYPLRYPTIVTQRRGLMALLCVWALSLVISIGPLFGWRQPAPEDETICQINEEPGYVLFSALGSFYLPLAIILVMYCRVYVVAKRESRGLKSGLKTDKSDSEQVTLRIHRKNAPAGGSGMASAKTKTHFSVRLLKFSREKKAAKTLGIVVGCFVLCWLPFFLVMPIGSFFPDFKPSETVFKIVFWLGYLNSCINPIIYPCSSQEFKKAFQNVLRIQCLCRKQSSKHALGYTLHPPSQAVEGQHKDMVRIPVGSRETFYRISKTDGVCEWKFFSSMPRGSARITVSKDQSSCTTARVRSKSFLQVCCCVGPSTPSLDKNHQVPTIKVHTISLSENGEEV

Homo sapiens = species on record: Homo sapiens; experiment: Selectivity ratio of Ki for alpha1-adrenoceptor (unknown origin) in cerebral cortex membranes to Ki for recombinant human 5-HT1A receptor expressed in HEK293 cell membranes; assay type: cell-based
[11] = AUC (0 to infinity) in Sprague-Dawley rat at 0.5 mg/kg, iv administered as single dose by LC-MS/MS analysis; assay type: ADME, organism-based; design: dose 0.5 mg/kg, time infinity, route intravenous; details: in vivo
[12] = Cmax in Sprague-Dawley rat at 0.5 mg/kg, iv administered as single dose by LC-MS/MS analysis; assay type: ADME, organism-based; design: dose 0.5 mg/kg, route intravenous; details: in vivo
[13] = Plasma concentration in Sprague-Dawley rat at 2 mg/kg, po administered as single dose measured after 9 hrs by LC-MS/MS analysis; assay type: ADME, organism-based
[14] = Plasma concentration in Sprague-Dawley rat at 0.5 mg/kg, iv administered as single dose measured after 5 mins by LC-MS/MS analysis; assay type: ADME, organism-based
[15] = Plasma concentration in Sprague-Dawley rat at 0.5 mg/kg, iv administered as single dose measured after 1 hr by LC-MS/MS analysis; assay type: ADME, organism-based
[16] = Plasma concentration in Sprague-Dawley rat at 0.5 mg/kg, iv administered as single dose measured after 2 hrs by LC-MS/MS analysis; assay type: ADME, organism-based
[17] = Plasma concentration in Sprague-Dawley rat at 0.5 mg/kg, iv administered as single dose measured after 4 hrs by LC-MS/MS analysis; assay type: ADME, organism-based

## Fc1ccc(N2CCN(CCCc3c[nH]c4ccc(F)cc34)CC2)c(-c2ccccc2)c1
[1]
  pIC50: 7.60
[2]
  inhibition: > 90%
[3]
  pKi: 8.48
[4]
  microsomal CLint at 1 µM: 29.8 µL/min/mg
Mus musculus [5]
  Activity: Dose-dependent effect
[6]
  pIC50: 4.78
Mus musculus [7]
  Activity: 39%
Mus musculus [8]
  Activity: 20%
Mus musculus [9]
  Activity: 18%
[10]
  pKi: 7.55
Homo sapiens
  Ratio Ki: 1
[11]
  AUC(0-inf): 328 ng·h/mL
[12]
  Cmax: 342 ng/mL
[13]
  concentration at 9 h: 34.9 ng/mL
[14]
  concentration at 5 min: 342 ng/mL
[15]
  concentration at 1 h: 51.3 ng/mL
[16]
  concentration at 2 h: 32.3 ng/mL
[17]
  concentration at 4 h: 20.7 ng/mL
